Test results: patent publication US11214803B2, “Modulators of YAP1 expression” (Ionis Pharmaceuticals, Inc., priority 2019, dated 2022)
Strand notation (5' to 3'): a small letter for the sugar, then the base; units joined by * are phosphorothioate-linked, units joined directly phosphodiester-linked; [ ] holds rarer units or linkages, { } end groups; capitals alone tell only the bases. k = constrained ethyl (cEt); [5mC] = 5-methylcytosine; d = 2'-deoxy (DNA)

Tested on: Yap1 mRNA
Experiment: Dose-dependent inhibition of human Yap1 in A-431 cells (Example 7, 10,000 cells per well, RTS36584)
Type: cell-based
Conditions: free uptake
Protocol: Modified oligonucleotides described in the studies above were tested at various doses in A-431 cells. Cultured A-431 cells at a density of 10,000 cells per well were treated using free uptake with modified oligonucleotides diluted to concentrations described in the tables below. After approximately 48 hours, Yap1 mRNA levels were measured as previously described using the Human Yap1 primer-probe set RTS36584. Yap1 mRNA levels were normalized to total RNA content, as measured by RIBOGREEN®. Results are presented in the tables below as percent control of the amount of Yap1 mRNA relative to untreated control cells (% UTC). IC50s were calculated using a linear regression on a log/linear plot of the data in excel.

[1] = Table 60, 15.6 nM, A-431 cells 10,000 cells per well, 48 hours
[2] = Table 60, 62.5 nM, A-431 cells 10,000 cells per well, 48 hours
[3] = Table 60, 4000.00 nM, A-431 cells 10,000 cells per well, 48 hours
[4] = Table 60, A-431 cells 10,000 cells per well
[5] = Table 57, 15.6 nM, A-431 cells 10,000 cells per well, 48 hours
[6] = Table 57, 62.5 nM, A-431 cells 10,000 cells per well, 48 hours
[7] = Table 57, 4000.00 nM, A-431 cells 10,000 cells per well, 48 hours
[8] = Table 57, A-431 cells 10,000 cells per well
[9] = 15.6 nM, A-431 cells, 10,000 cells per well, approximately 48 hours
[10] = 62.5 nM, A-431 cells, 10,000 cells per well, approximately 48 hours
[11] = 4000.00 nM, A-431 cells, 10,000 cells per well, approximately 48 hours
[12] = A-431 cells, approximately 48 hours, linear regression on log/linear plot
[13] = Table 59, 15.6 nM, A-431 cells 10,000 cells per well, 48 hours
[14] = Table 59, 62.5 nM, A-431 cells 10,000 cells per well, 48 hours
[15] = Table 59, 4000.00 nM, A-431 cells 10,000 cells per well, 48 hours
[16] = Table 59, A-431 cells 10,000 cells per well
[17] = Table 56, 15.6 nM, A-431 cells 10,000 cells per well, 48 hours
[18] = Table 56, 62.5 nM, A-431 cells 10,000 cells per well, 48 hours
[19] = Table 56, 4000.00 nM, A-431 cells 10,000 cells per well, 48 hours
[20] = Table 56, A-431 cells 10,000 cells per well

958473 (kG*kT*k[5mC]*dT*d[5mC]*d[5mC]*dT*dT*dA*dG*dA*dT*d[5mC]*k[5mC]*kT*kT; antisense) [compound 958473]
Yap1 mRNA, % UTC [1]: 85 % UTC | Yap1 mRNA, % UTC [2]: 60 % UTC | Yap1 mRNA, % UTC [3]: 17 % UTC | IC50 [4]: 100 nM

958486 (kT*kT*kA*dG*dA*dG*d[5mC]*d[5mC]*dA*dA*d[5mC]*dT*dG*kT*kG*kA; antisense) [compound 958486]
Yap1 mRNA, % UTC [5]: 87 % UTC | Yap1 mRNA, % UTC [6]: 73 % UTC | Yap1 mRNA, % UTC [7]: 22 % UTC | IC50 [8]: 200 nM

958819 (kT*kG*k[5mC]*dT*dT*d[5mC]*dA*dA*d[5mC]*dA*dT*dT*dG*kT*kT*k[5mC]; antisense) [compound 958819]
Yap1 mRNA, % UTC [9]: 79 % UTC | Yap1 mRNA, % UTC [10]: 63 % UTC | Yap1 mRNA, % UTC [11]: 19 % UTC | IC50 [12]: 100 nM

958793 (k[5mC]*k[5mC]*kG*d[5mC]*dA*dT*dT*dG*d[5mC]*d[5mC]*dT*dA*dA*kG*kA*kG; antisense) [compound 958793]
Yap1 mRNA, % UTC [1]: 88 % UTC | Yap1 mRNA, % UTC [2]: 61 % UTC | Yap1 mRNA, % UTC [3]: 25 % UTC | IC50 [4]: 200 nM

958491 (kA*k[5mC]*kT*dA*dA*dA*dT*dG*d[5mC]*dT*dG*dT*dG*kA*k[5mC]*kA; antisense) [compound 958491]
Yap1 mRNA, % UTC [5]: 94 % UTC | Yap1 mRNA, % UTC [6]: 65 % UTC | Yap1 mRNA, % UTC [7]: 10 % UTC | IC50 [8]: 100 nM

958570 (kT*kG*kT*dA*dA*dT*dT*d[5mC]*dA*dT*dA*dT*dA*k[5mC]*k[5mC]*k[5mC]; antisense) [compound 958570]
Yap1 mRNA, % UTC [9]: 93 % UTC | Yap1 mRNA, % UTC [10]: 60 % UTC | Yap1 mRNA, % UTC [11]: 17 % UTC | IC50 [12]: 100 nM

958578 (k[5mC]*kT*kT*dA*dA*dT*d[5mC]*dT*dG*dT*dG*dG*d[5mC]*kT*kA*k[5mC]; antisense) [compound 958578]
Yap1 mRNA, % UTC [1]: 78 % UTC | Yap1 mRNA, % UTC [2]: 52 % UTC | Yap1 mRNA, % UTC [3]: 10 % UTC | IC50 [4]: 100 nM

958573 (kG*kG*k[5mC]*dA*dA*dA*dT*dT*dA*dT*dA*dG*dG*k[5mC]*kA*k[5mC]; antisense) [compound 958573]
Yap1 mRNA, % UTC [13]: 81 % UTC | Yap1 mRNA, % UTC [14]: 56 % UTC | Yap1 mRNA, % UTC [15]: 8 % UTC | IC50 [16]: 100 nM

958734 (kA*k[5mC]*kA*d[5mC]*dA*dT*dA*dG*dA*dG*d[5mC]*dT*dA*kA*kG*kG; antisense) [compound 958734]
Yap1 mRNA, % UTC [9]: 87 % UTC | Yap1 mRNA, % UTC [10]: 65 % UTC | Yap1 mRNA, % UTC [11]: 15 % UTC | IC50 [12]: 100 nM

958650 (kT*k[5mC]*kA*dA*dT*dT*dG*dA*dG*dT*d[5mC]*dT*dG*k[5mC]*kT*kA; antisense) [compound 958650]
Yap1 mRNA, % UTC [9]: 82 % UTC | Yap1 mRNA, % UTC [10]: 51 % UTC | Yap1 mRNA, % UTC [11]: 7 % UTC | IC50 [12]: 100 nM

958724 (kT*k[5mC]*kA*dG*dT*dT*dA*dT*d[5mC]*d[5mC]*dT*dA*dT*k[5mC]*k[5mC]*k[5mC]; antisense) [compound 958724]
Yap1 mRNA, % UTC (Table 61, 15.6 nM, A-431 cells 10,000 cells per well, 48 hours): 89 % UTC | Yap1 mRNA, % UTC (Table 61, 62.5 nM, A-431 cells 10,000 cells per well, 48 hours): 55 % UTC | Yap1 mRNA, % UTC (Table 61, 4000.00 nM, A-431 cells 10,000 cells per well, 48 hours): 6 % UTC | IC50 (Table 61, A-431 cells 10,000 cells per well): 100 nM

958763 (k[5mC]*kA*k[5mC]*dA*dA*dT*dA*d[5mC]*dA*dA*dG*dA*dT*kG*k[5mC]*kA; antisense) [compound 958763]
Yap1 mRNA, % UTC [13]: 98 % UTC | Yap1 mRNA, % UTC [14]: 60 % UTC | Yap1 mRNA, % UTC [15]: 8 % UTC | IC50 [16]: 100 nM

958668 (kG*kT*kG*dA*dT*d[5mC]*dT*dG*dT*dG*dA*dG*dA*kG*kG*kT; antisense) [compound 958668]
Yap1 mRNA, % UTC [13]: 81 % UTC | Yap1 mRNA, % UTC [14]: 38 % UTC | Yap1 mRNA, % UTC [15]: 5 % UTC | IC50 [16]: 100 nM

958496 (k[5mC]*k[5mC]*kT*dT*dA*dT*dA*dA*dG*d[5mC]*dT*d[5mC]*d[5mC]*kT*kA*kA; antisense) [compound 958496]
Yap1 mRNA, % UTC [17]: 86 % UTC | Yap1 mRNA, % UTC [18]: 53 % UTC | Yap1 mRNA, % UTC [19]: 9 % UTC | IC50 [20]: 90 nM

958796 (kA*kT*kT*dA*dT*dA*dT*dG*dG*dT*dT*dG*d[5mC]*kT*kT*k[5mC]; antisense) [compound 958796]
Yap1 mRNA, % UTC [17]: 91 % UTC | Yap1 mRNA, % UTC [18]: 62 % UTC | Yap1 mRNA, % UTC [19]: 15 % UTC | IC50 [20]: 130 nM
